According to article PMC6274503, “Chemical Constituents of Muehlenbeckia tamnifolia (Kunth) Meisn (Polygonaceae) and Its In Vitro α-Amilase and α-Glucosidase Inhibitory Activities” (Molecules, 2016):
Where two headings read alike, the source gives them in different places.

Tests used:
[1] = biological target: α-glucosidase from Saccharomyces cerevisiae; experiment: α-glucosidase inhibition assay (p-NPG substrate, pNP release over 60 min); format: biochemical; conditions: for IC50: compounds and acarbose, max concentration tested 1 mM, '-' = no inhibitory activity at maximum dose tested
Procedure: (§1) The α-amylase and α-glucosidase assays were evaluated using α-amylase from porcine pancreas (Type IV-B, Sigma A3176, St. Louis, MO, USA) and α-glucosidase from Saccharomyces cerevisiae (Tipe I, Sigma G5003, St. Louis, MO, USA). Starch was used as substrate for α-amylase and p-Nitrophenyl-α-D-glucopiranoside (p-NPG-Sigma, N1377) was used as substrate for α-glucosidase. For both enzymatic tests, a microplate reader (EPOCH 2, Biotek Instruments Inc. Winoosky, VT, USA) was used.
α-Glucosidase inhibitory activity was determined using a 96-well microtiter plate with p-nitrophenyl-α-D-glucopyranoside as the substrate, according to the method describe by Tao et al. [32], with slight modifications. Sample solutions were prepared by dissolving 10 mg in 1 mL MeOH:H2O (50:50). Several dilutions in PBS were made in case of getting complete enzyme inhibition. First, 75 μL of PBS (SIGMA-P4417) was mixed with 5 μL of the sample and 20 μL of the enzyme solution (0.15 U/mL in PBS pH 7.4), then it was pre-incubated at 37 °C for 5 min prior to the initiation of the reaction by adding the substrate. After pre-incubation, 20 μL of PNPG (5 mM in phosphate buffer, pH 7.4) was added and then incubated at 37 °C. […] The results were expressed as inhibition percentage by means of the formula described by Choi et al. [33] as follows: (2) Inhibition (%)=[(Ao−As)/Ao]×100 where A0 is the absorbance recorded for the enzymatic activity without inhibitor (control), and As is the absorbance recorded for the enzymatic activity in presence of the inhibitor (sample). IC50 value was calculated by curve fitting of data (GraphPad Prism 5.0).

[2] = biological target: T1, α-amylase from porcine pancreas (Sus scrofa, UniProt P00690); experiment: α-amylase inhibitory activity (starch-iodine method); format: biochemical
T1 sequence (P00690 16-511): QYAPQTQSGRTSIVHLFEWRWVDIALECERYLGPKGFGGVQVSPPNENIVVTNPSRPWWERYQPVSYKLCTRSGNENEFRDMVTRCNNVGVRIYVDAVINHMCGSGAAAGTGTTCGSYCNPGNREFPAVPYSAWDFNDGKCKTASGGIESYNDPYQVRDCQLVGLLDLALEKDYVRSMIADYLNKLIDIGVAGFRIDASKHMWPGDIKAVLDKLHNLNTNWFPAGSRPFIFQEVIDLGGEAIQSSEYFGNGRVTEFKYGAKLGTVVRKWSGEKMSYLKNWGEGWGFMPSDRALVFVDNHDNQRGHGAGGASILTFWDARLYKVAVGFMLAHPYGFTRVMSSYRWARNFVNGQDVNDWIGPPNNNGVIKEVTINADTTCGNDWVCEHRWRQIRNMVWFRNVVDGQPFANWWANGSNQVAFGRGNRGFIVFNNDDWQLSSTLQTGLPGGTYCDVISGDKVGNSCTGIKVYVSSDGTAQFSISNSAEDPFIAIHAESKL
Procedure: as §1
The inhibitory activity is measured according to the method reported by Xiao et al. [30] with slight modifications. […] Starch solution was prepared by dissolving 1 g in 50 mL of 0.4 M NaOH and heated for 5 min at 100 °C. After cooling in iced water, the solution pH was adjusted to 7 with 2 M HCl and H2O was added to complete 100 mL. Sample solutions were prepared by dissolving 10 mg in 1 mL MeOH:H2O (50:50). Several dilutions in PBS (SIGMA-P4417) were made in case of getting complete enzyme inhibition. PBS solution (35 μL), substrate (35 μL) and sample (5 μL) solutions were mixed in a 96-well microtiter plate, and the mixture was pre-incubated at 37 °C for 1 min. Then, 20 μL of a 50 μg/mL α-amylase solution was added to each well. The plate was incubated for 15 min. […] The absorbance was measured in a microplate reader (EPOCH 2, Biotek Instruments Inc. Winoosky, VT, USA) at 580 nm. Inhibitory activity (%) was calculated according to the formula described by Kusano et al. [31] as follows: (1) Inhibition (%)=[1−(ABS2−ABS1)/(ABS4−ABS3)×100] where ABS1 is the absorbance of the incubated solution containing sample, starch and amylase, ABS2 is the absorbance of incubated solution containing sample and starch, ABS3 is the absorbance of incubated solution containing starch and amylase, and ABS4 is the absorbance of incubated solution containing starch. IC50 value was calculated by curve fitting of data (GraphPad Prism 5.0, GraphPad Software, Inc., La Jolla, CA, USA).

[3] = compounds and acarbose; max concentration tested 1 mM; '-' = inactive at maximum dose tested (<35% inhibition); read-out: IC50 α-amylase
[4] = read-out: IC50 α-amylase; compounds and acarbose; max concentration tested 1 mM; '-' = inactive at maximum dose tested (<35% inhibition)

IC50 [2, 3] | SMILES | IC50 [1] | IC50 [2, 4] | enzyme inhibition (α-glucosidase) ([1]; at the maximum dose tested (1 mM for compounds))
– | O=C(O)/C=C\c1ccc(O)cc1 [Compound 2, Cis-p-coumaric acid] | > 41.7 µM | > 62.5 µM | –
> 62.5 µM | C=C(C)[C@@H]1CC[C@]2(C)CC[C@]3(C)[C@H](CC[C@@H]4[C@@]5(C)CC[C@H](O)C(C)(C)[C@@H]5CC[C@]43C)[C@@H]12 [Compound 3, Lupeol] | > 41.7 µM | – | –
– | O=C(O)/C=C/c1ccc(O)cc1 [Compound 5, Trans-p-coumaric acid] | > 41.7 µM | > 62.5 µM | 27%
> 62.5 µM | CCCCC/C=C\C/C=C\CCCCCCCC(=O)O [Compound 6, Linoleic acid] | 0.42 µM | – | –
> 62.5 µM | Oc1cc(O)c2c(c1)O[C@H](c1ccc(O)c(O)c1)[C@@H](O)C2 [Compound 7, (+)-Catechin] | 5.5 µM | – | –
– | C[C@@H]1O[C@@H](Oc2c(-c3ccc(O)c(O)c3)oc3cc(O)cc(O)c3c2=O)[C@H](O)[C@H](O)[C@H]1O [Compound 9, Quercitrin] | 7.77 µM | > 62.5 µM | –

SMILES | IC50 [2, 3] | IC50 [1] | IC50 [2, 4] | enzyme inhibition (α-glucosidase) ([1]; at the maximum dose tested (1 mM for compounds))
C=C(C)[C@@H]1CC[C@]2(C)CC[C@]3(C)[C@H](CC[C@@H]4[C@@]5(C)CC[C@H](OC(C)=O)C(C)(C)[C@@H]5CC[C@]43C)[C@@H]12 [Compound 1, Lupeol acetate] | > 62.5 µM | > 41.7 µM | – | –
CC[C@H](CC[C@@H](C)[C@H]1CC[C@H]2[C@@H]3CC=C4C[C@@H](O)CC[C@]4(C)[C@H]3CC[C@]12C)C(C)C [Compound 4, β-Sitosterol] | > 62.5 µM | > 41.7 µM | – | –
